Source: paper PMC6026185 (Scientific Reports, 2018)
“Also recorded” adds a separate entry of the source. Like-named read-outs stand apart in the source and are kept apart here. Blank lines part the entries; values can stand above or below the molecule they belong to.

Tests used:
hNKCC1A = target: T1, hNKCC1A (Homo sapiens, UniProt P55011); assay: 86Rb+ uptake in hNKCC1A-expressing Xenopus laevis oocytes; format: cell-based; details: for IC50 / IC50 for hNKCC1A, IC50 (µM) (range): 86Rb+ uptake, Xenopus oocytes, 5 min, corrected for uninjected oocytes, median and range of 3–7 experiments; for Ratio hNKCC1A/ hNKCC1B: ratio of IC50s
T1 construct: Full-length NKCC1 (NKCC1A) comprises ~1200 amino acids; expressed in transfected cells; host or cells: Xenopus laevis oocytes injected with cRNA (pXOOM vector)
T1 sequence (P55011 1-1212): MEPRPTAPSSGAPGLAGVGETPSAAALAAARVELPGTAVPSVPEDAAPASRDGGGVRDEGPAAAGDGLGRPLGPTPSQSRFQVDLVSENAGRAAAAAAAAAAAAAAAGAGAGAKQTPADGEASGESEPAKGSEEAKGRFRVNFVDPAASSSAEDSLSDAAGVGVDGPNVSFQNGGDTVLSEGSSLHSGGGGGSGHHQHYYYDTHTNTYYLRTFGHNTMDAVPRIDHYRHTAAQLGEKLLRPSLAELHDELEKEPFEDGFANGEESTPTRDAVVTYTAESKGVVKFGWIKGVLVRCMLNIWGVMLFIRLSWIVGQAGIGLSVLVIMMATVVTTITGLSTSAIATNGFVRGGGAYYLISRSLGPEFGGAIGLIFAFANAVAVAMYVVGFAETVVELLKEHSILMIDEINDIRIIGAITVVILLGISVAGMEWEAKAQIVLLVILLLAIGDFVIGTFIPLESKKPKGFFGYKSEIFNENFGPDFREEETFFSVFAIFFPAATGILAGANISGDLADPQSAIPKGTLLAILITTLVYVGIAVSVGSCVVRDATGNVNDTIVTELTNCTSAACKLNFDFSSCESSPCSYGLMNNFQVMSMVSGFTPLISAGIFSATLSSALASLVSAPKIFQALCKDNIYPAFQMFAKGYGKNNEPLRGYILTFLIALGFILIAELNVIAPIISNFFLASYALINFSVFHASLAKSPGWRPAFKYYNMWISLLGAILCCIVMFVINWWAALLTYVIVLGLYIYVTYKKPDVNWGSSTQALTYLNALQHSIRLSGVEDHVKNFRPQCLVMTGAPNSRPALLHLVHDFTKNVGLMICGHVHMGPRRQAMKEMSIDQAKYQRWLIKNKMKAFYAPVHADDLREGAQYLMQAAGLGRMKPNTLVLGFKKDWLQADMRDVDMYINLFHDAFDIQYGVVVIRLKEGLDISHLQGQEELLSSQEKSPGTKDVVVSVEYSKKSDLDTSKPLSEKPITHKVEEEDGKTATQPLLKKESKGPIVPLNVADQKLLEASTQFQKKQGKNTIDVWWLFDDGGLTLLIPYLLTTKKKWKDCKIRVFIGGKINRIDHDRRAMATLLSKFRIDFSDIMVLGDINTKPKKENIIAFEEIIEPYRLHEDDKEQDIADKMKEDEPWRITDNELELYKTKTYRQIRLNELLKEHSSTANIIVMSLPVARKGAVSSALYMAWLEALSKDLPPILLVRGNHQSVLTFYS

hNKCC1B = target: T2, hNKCC1B (Homo sapiens, UniProt P55011); assay: 86Rb+ uptake in hNKCC1B-expressing Xenopus laevis oocytes; format: cell-based; details: 5 min, corrected for uninjected oocytes, median and range of 3–7 experiments
T2 construct: expressed in transfected cells; host or cells: Xenopus laevis oocytes injected with cRNA (pXOOM vector)
T2 sequence (P55011 1-1196 isoform P55011-3): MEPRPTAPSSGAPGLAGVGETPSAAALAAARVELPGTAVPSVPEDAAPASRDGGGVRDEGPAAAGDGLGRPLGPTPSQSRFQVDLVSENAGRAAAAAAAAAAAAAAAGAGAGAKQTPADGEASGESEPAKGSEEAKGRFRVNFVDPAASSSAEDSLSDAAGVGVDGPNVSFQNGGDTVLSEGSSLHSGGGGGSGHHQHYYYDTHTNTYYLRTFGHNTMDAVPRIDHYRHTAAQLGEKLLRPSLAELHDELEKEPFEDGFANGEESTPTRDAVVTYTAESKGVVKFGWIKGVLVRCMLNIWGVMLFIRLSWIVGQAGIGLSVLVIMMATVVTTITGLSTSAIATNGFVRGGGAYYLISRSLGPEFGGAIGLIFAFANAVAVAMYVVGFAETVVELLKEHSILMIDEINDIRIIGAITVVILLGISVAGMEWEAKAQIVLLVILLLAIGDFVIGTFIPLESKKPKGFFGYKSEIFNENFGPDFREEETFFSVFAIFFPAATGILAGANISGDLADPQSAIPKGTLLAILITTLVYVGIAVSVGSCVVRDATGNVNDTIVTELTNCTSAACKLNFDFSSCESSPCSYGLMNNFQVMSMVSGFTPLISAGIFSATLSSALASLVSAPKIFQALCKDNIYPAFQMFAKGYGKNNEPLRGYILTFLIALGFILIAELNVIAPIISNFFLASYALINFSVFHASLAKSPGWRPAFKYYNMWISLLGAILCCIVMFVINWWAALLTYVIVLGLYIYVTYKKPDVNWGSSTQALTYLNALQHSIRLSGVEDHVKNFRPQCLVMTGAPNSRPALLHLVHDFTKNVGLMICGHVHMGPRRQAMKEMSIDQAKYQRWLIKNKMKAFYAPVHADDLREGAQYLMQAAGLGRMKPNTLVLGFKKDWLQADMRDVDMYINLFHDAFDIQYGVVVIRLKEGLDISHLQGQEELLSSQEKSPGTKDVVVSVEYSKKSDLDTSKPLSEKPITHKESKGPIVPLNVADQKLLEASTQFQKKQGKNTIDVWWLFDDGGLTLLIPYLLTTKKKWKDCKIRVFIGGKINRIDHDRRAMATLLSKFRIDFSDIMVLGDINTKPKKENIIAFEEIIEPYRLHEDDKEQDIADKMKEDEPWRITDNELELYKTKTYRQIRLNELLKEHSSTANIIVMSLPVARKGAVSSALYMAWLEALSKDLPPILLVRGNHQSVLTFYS

NKCC2 [1] = test system: NKCC2; set-up: method as in Greven[53]; details: Rat kidney TAL; ref Greven[53]; cited from earlier work
[2] = in words, cited from earlier work
[3] = rats, cited from earlier work
[4] = set-up: method as in DrugBank database; details: ref DrugBank database; cited from earlier work
[5] = set-up: method as in DrugBank database; details: ref DrugBank database; cited from earlier work; remark: listed apart in the source
[6] = set-up: method as in ref [30] = [30]; 30. Reilly, R. F. & Jackson, E. K. Goodman & Gilman’s. The Pharmacological Basis of Therapeutics . 12th ed. Brunton, L. L., Chabner, B. A. & Knollmann, B. C. (eds), pp. 671–719 (McGraw-Hill, New York); details: ref [30]; cited from earlier work
NKCC1 = details: Activated state, isoforms not differentiated, turkey erythrocytes, chick cardiac cells, winter flounder intestine, ref Palfrey et al.[48], Frelin et al.[49], O’Grady et al.[50], cited from earlier work
NKCC2 [7] = test system: NKCC2; set-up: method as in Schlatter et al.[23]; details: Rabbit kidney TAL; ref Schlatter et al.[23]; cited from earlier work
NKCC2 [8] = test system: NKCC2; set-up: method as in ref Palfrey et al.[48]; Schlatter et al.[23]; Frelin et al.[49]; O’Grady et al.[50]; Glanville et al.[51]; Hannaert et al.[52]; details: Rabbit kidney TAL; rat kidney TAL; NKCC2 isoforms not differentiated; ref Palfrey et al.[48]; Schlatter et al.[23]; Frelin et al.[49]; O’Grady et al.[50]; Glanville et al.[51]; Hannaert et al.[52]; cited from earlier work
hNKCC2 isoform A = details: Xenopus oocytes; ref Gillen et al.[55]; Carota et al.[56]; read-out: IC50 (µM) NKCC2 (hA); cited from earlier work
hNKCC2 isoform B = details: Xenopus oocytes; ref Gillen et al.[55]; Carota et al.[56]; read-out: IC50 (µM) NKCC2 (hB); cited from earlier work
NKCC2 [9] = test system: NKCC2; set-up: method as in Wittner et al.[54]; details: Mouse and rabbit kidney TAL; ref Wittner et al.[54]; cited from earlier work
[10] = mIMCD-K2 cells, rat erythrocytes and thymocytes, Schlatter et al.[23], Glanville et al.[51], Hannaert et al.[52]

Compound: NS(=O)(=O)c1cc(C(=O)O)cc(NCc2ccccc2)c1Oc1ccccc1 [Benzmetanide]
- IC50 (NKCC1): 0.05 to 0.3 µM

Compound: C=C(CC)C(=O)c1ccc(OCC(=O)O)c(Cl)c1Cl [Ethacrynic acid]
- IC50 (hNKCC1A): 1680 µM
- IC50 (hNKCC1B): 3070 µM
- IC50 (NKCC2 [7]): 5.1 µM

Compound: CCOC(=O)/C=C1\SC(N2CCCCC2)C(=O)N1C (stereo not drawn) [Etozolin]
- IC50 (NKCC2 [7]): > 100 µM

Compound: NS(=O)(=O)c1cc(C(=O)O)c(NCc2ccco2)cc1Cl [Furosemide]
- IC50 (NKCC2 [8]): 3 to 7.1 µM
- IC50 (NKCC1; [10]): 7 to 23 µM
- IC50 (hNKCC2 isoform A): 15.1 µM
- IC50 (hNKCC2 isoform B): 7.2 µM

Compound: CC1(c2ccccc2)Cc2cc(OCC(=O)O)c(Cl)c(Cl)c2C1=O (stereo not drawn) [Indacrinone]
- IC50 (NKCC2 [7]): 12 µM

Compound: CC(c1ccc(Cl)c(Cl)c1)N1N=C(N)CC1=O (stereo not drawn) [Muzolimine]
- IC50 (NKCC2 [7]): > 100 µM

Compound: CN1C(=O)C(N2CCCCC2)S/C1=C/C(=O)O (stereo not drawn) [Ozolinon]
- IC50 (NKCC2 [7]): 11 µM

Compound: O=C(O)COc1ccc(C(=O)c2cccs2)c(Cl)c1Cl [Ticrynafen]
- IC50 (hNKCC1A): 489 µM
- Ratio hNKCC1A/ hNKCC1B (hNKCC1A): 0.275
- IC50 (hNKCC1B): 1780 µM
- IC50 (NKCC2 [7]): 410 µM

Compound: CN=C1SCC(O)(c2ccc(Cl)c(S(N)(=O)=O)c2)N1C (stereo not drawn) [Tizolemide]
- IC50 (NKCC2 [7]): > 100 µM

More lines, main results first:

- IC50 (hNKCC1A): 0.246 µM
- Ratio hNKCC1A/ hNKCC1B (hNKCC1A): 1.25
- IC50 (hNKCC1B): 0.197 µM
Compound: NS(=O)(=O)c1cc(-c2nnn[nH]2)c(NCc2cccs2)cc1Cl [Azosemide]
- IC50 (NKCC2 [1]): 3 µM
- plasma protein binding ([2]; ref [31]): highly bound to plasma proteins
- brain levels ([3]; 30 min following i.v. 20 mg/kg, below detection limit, ref [32]): < 0.05 µg/g
- pKa [4]: 7.38
- Lipophilicity (logP) [5]: 2.38
- clinical diuretic potency relative to furosemide [6]: about the same diuretic potency as furosemide

- IC50 (hNKCC1A): > 100 µM
- IC50 for hNKCC1A, IC50 (µM) (range) (hNKCC1A; listed as glibenclamide): did not inhibit; also recorded: inactive
- IC50 (hNKCC1B): > 100 µM
- IC50 for hNKCC1B, IC50 (µM) (range) (hNKCC1B; listed as glibenclamide): did not inhibit; also recorded: inactive
Compound: COc1ccc(Cl)cc1C(=O)NCCc1ccc(S(=O)(=O)NC(=O)NC2CCCCC2)cc1 [Glybenclamide, 5-chloro-N-(2-{4-[(cyclohexylcarbamoyl)sulfamoyl]phenyl}ethyl)-2-methoxybenzamide]

- IC50 (hNKCC1A): 3.35 µM
- Ratio hNKCC1A/ hNKCC1B (hNKCC1A): 2.02
- IC50 (hNKCC1B): 1.66 µM
Compound: NS(=O)(=O)c1cc(C(=O)O)cc(N2CCCC2)c1Oc1ccccc1 [Piretanide]
- IC50 (NKCC2 [8]): 1 to 1.1 µM
- IC50 (NKCC1; [10]): 0.5 to 3 µM

- IC50 (hNKCC1A): 6.18 µM
- Ratio hNKCC1A/ hNKCC1B (hNKCC1A): 0.755
- IC50 (hNKCC1B): 8.19 µM
Compound: Cc1cccc(Nc2ccncc2S(=O)(=O)NC(=O)NC(C)C)c1 [Torasemide]
- IC50 (NKCC2 [9]): 0.3 µM
- plasma protein binding ([2]; ref [33]): highly bound to plasma proteins
- brain:plasma concentration ratio ([3]; 30 min after i.v. 10 mg/kg, ref [34]): 0.00024
- clinical diuretic potency relative to furosemide [6]: about 3 times

- IC50 (hNKCC1A): > 1000 µM
- IC50 (hNKCC1B): > 1000 µM
Compound: NS(=O)(=O)c1cc(C(=O)NN2CC3C4CCC(C4)C3C2)ccc1Cl (stereo not drawn) [Tripamide]

- IC50 (hNKCC1A): > 1750 µM
- IC50 for hNKCC1A, IC50 (µM) (range) (hNKCC1A): did not inhibit; also recorded: inactive
- IC50 (hNKCC1B): > 1750 µM
- IC50 for hNKCC1B, IC50 (µM) (range) (hNKCC1B): did not inhibit; also recorded: inactive
Compound: Cc1cccc(C)c1NC(=O)c1cc(S(N)(=O)=O)c(Cl)cc1O [Xipamide, 4-chloro-5-sulfamoyl-2′,6′-salicyloxylidide]
